Data on 17 compounds can be found in patent publication US20230340011A1 (Asteroid Therapeutics, priority 2022, published 2023).

One may read the IC50 as the concentration that inhibits the measured activity by half. Lower therefore signals greater potency.

Experiment [1] has as its target LXRβ (Homo sapiens (Human), UniProt P55055). Briefly: In vitro assay LXRβ: PathHunter NHR CHO cells, LXRβ / Steroid Receptor Co-activator Peptide enzyme fragment complementation. In kind it is cell-based. In short, it runs like this:
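Enzyme fragment complementation read-out: CHO cells stably expressing ProLink-tagged full-length human LXRβ plus nuclear enzyme acceptor–SRCP fusion, seeded and held overnight at 37° C. Medium with charcoal-dextran filtered serum; final vehicle 1%. Chemiluminescence measured after signal generation.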

Experiment [2] concerns the target SREBP-2 (Homo sapiens (Human), UniProt Q12772). Kind of experiment: In vitro assay SREBP-2: PathHunter U2OS SREBP-2 Nuclear Translocation Cell Line, U18666A-stimulated. The experiment is classed as cell-based. The settings on record: PathHunter U2OS SREBP-2 nuclear translocation cells, U18666A 10 μM, overnight (16 hours).
[3] abbreviates: PathHunter NHR CHO cells, full-length human LXRβ and SRCP, chemiluminescent signal, read-out: LXRβ PPI.

The structures appear in SMILES notation. Read-outs that look alike come from different tables or passages of the source. A value given as a limit tells only on which side of the number the result lay.

Sequence of LXRβ (P55055 whole entry, the tested form may be a part): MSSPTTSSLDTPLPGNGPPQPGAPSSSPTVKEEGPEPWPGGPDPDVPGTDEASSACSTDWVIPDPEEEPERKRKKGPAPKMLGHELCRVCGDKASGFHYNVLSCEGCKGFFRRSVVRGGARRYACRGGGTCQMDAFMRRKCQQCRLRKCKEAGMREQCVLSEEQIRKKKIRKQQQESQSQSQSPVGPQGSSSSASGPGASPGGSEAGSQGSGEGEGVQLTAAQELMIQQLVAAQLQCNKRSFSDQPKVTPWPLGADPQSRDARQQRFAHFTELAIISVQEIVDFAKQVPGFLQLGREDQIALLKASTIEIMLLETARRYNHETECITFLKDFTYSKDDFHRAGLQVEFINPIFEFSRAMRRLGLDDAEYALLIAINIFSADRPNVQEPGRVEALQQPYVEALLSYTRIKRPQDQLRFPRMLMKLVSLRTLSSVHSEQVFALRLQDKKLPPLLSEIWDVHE

Consider `C[C@H](CCC(=O)N1CCS(=O)(=O)C1)[C@H]1CC[C@H]2[C@@H]3CC=C4C[C@@H](O)CC[C@]4(C)[C@H]3CC[C@]12C` [Example 357, (R)-1-(1,1-dioxidothiazolidin-3-yl)-4-((3S,8S,9S,10R,13R,14S,17R)-3-hydroxy-10,13-dimethyl-2,3,4,7,8,9,10,11,12,13,14,15,16,17-tetradecahydro-1H-cyclopenta[a]phenanthren-17-yl)pentan-1-one], for which the EC50 in experiment [1] (setting [3]) is above 10 µM. This compound also had an IC50 in experiment [2] below 0.25 µM.

In the case of `CCN(C(=O)C(=O)O[C@@H](C)[C@H]1CC[C@H]2[C@@H]3CC=C4C[C@@H](O)CC[C@]4(C)[C@H]3CC[C@]12C)C(C)C` [Example 197, (S)-1-((3S,8S,9S,10R,13S,14S,17S)-3-hydroxy-10,13-dimethyl-2,3,4,7,8,9,10,11,12,13,14,15,16,17-tetradecahydro-1H-cyclopenta[a]phenanthren-17-yl)ethyl 2-(ethyl(isopropyl)amino)-2-oxoacetate], the EC50 in experiment [1] (setting [3]) was in the range of 0.25 to 1 µM. The compound also registered an IC50 in experiment [2] below 0.25 µM.

On to `C[C@H]1CCCN(C(=O)CC[C@@H](C)[C@H]2CC[C@H]3[C@@H]4CC=C5C[C@@H](O)CC[C@]5(C)[C@H]4CC[C@]23C)C1` [Example 110, (R)-4-((3S,8S,9S,10R,13R,14S,17R)-3-hydroxy-10,13-dimethyl-2,3,4,7,8,9,10,11,12,13,14,15,16,17-tetradecahydro-1H-cyclopenta[a]phenanthren-17-yl)-1-((S)-3-methylpiperidin-1-yl) pentan-1-one], for which, in experiment [1] (setting [3]), the EC50 lay in the range of 1 to 10 µM. In addition, the IC50 in experiment [2] was below 0.25 µM.

Take `C[C@H](CCC(=O)N1CCN(c2ccncc2)C[C@@H]1C)[C@H]1CC[C@H]2[C@@H]3CC=C4C[C@@H](O)CC[C@]4(C)[C@H]3CC[C@]12C` [Example 580, (R)-4-((3S,8S,9S,10R,13R,14S,17R)-3-hydroxy-10,13-dimethyl-2,3,4,7,8,9,10,11,12,13,14,15,16,17-tetradecahydro-1H-cyclopenta[a]phenanthren-17-yl)-1-((S)-2-methyl-4-(pyridin-4-yl)piperazin-1-yl)pentan-1-one]: the EC50 in experiment [1] (setting [3]) is above 10 µM. Besides, the IC50 in experiment [2] is below 0.25 µM.

For the compound `C[C@H](CCC(=O)N1CCC(C)(CNC(=O)C(C)(C)O)CC1)[C@H]1CC[C@H]2[C@@H]3CC=C4C[C@@H](O)CC[C@]4(C)[C@H]3CC[C@]12C` [Example 365, 2-hydroxy-N-((1-((R)-4-((3S,8S,9S,10R,13R,14S,17R)-3-hydroxy-10,13-dimethyl-2,3,4,7,8,9,10,11,12,13,14,15,16,17-tetradecahydro-1H-cyclopenta[a]phenanthren-17-yl)pentanoyl)-4-methylpiperidin-4-yl)methyl)-2-methylpropanamide], the EC50 in experiment [1] (setting [3]) is above 10 µM. Also, the IC50 in experiment [2] was below 0.25 µM.

`C[C@H](CCc1ncccc1C(C)(C)O)[C@H]1CC[C@H]2[C@@H]3CC=C4C[C@@H](O)CC[C@]4(C)[C@H]3CC[C@]12C` [Example 248, (3S,8S,9S,10R,13R,14S,17R)-17-((R)-4-(3-(2-hydroxypropan-2-yl)pyridin-2-yl)butan-2-yl)-10,13-dimethyl-2,3,4,7,8,9,10,11,12,13,14,15,16,17-tetradecahydro-1H-cyclopenta[a]phenanthren-3-ol] gave an EC50 in experiment [1] below 0.25 µM. The compound also yielded an IC50 in experiment [2] below 0.25 µM.

`C[C@H](CCC(=O)N(C)C)[C@H]1CC[C@H]2[C@@H]3CC=C4CC(F)(F)CC[C@]4(C)[C@H]3CC[C@]12C` [Example 127, (R)-4-((8S,9S,10R,13R,14S,17R)-3,3-difluoro-10,13-dimethyl-2,3,4,7,8,9,10,11,12,13,14,15,16,17-tetradecahydro-1H-cyclopenta[a]phenanthren-17-yl) -N,N-dimethylpentanamide]: the EC50 in experiment [1] (setting [3]) was above 10 µM. The same compound gave an IC50 in experiment [2] above 10 µM.

As for `Cc1noc(N2CCN(C(=O)CC[C@@H](C)[C@H]3CC[C@H]4[C@@H]5CC=C6C[C@@H](O)CC[C@]6(C)[C@H]5CC[C@]34C)CC2)n1` [Example 495, (R)-4-((3S,8S,9S,10R,13R,14S,17R)-3-hydroxy-10,13-dimethyl-2,3,4,7,8,9,10,11,12,13,14,15,16,17-tetradecahydro-1H-cyclopenta[a]phenanthren-17-yl)-1-(4-(3-methyl-1,2,4-oxadiazol-5-yl)piperazin-1-yl)pentan-1-one], in experiment [1] (setting [3]), the EC50 is above 10 µM. In experiment [2], this compound had an IC50 below 0.25 µM.

For `C[C@H](CC(=O)N1CCN(c2ccncn2)CC1)[C@H]1CC[C@H]2[C@@H]3CC=C4C[C@@H](O)CC[C@]4(C)[C@H]3CC[C@]12C` [Example 595, (R)-3-((3S,8S,9S,10R,13R,14S,17R)-3-hydroxy-10,13-dimethyl-2,3,4,7,8,9,10,11,12,13,14,15,16,17-tetradecahydro-1H-cyclopenta[a]phenanthren-17-yl)-1-(4-(pyrimidin-4-yl)piperazin-1-yl)butan-1-one], in experiment [1] (setting [3]), the EC50 was above 10 µM. This compound came in with an IC50 in experiment [2] of 1 to 10 µM.

Consider `CON(C(=O)CC[C@@H](C)[C@H]1CC[C@H]2[C@@H]3CC=C4C[C@@H](O)CC[C@]4(C)[C@H]3CC[C@]12C)C(C)CO` (stereo partly drawn) [Example 66, (4R)-4-((3S,8S,9S,10R,13R,14S,17R)-3-hydroxy-10,13-dimethyl-2,3,4,7,8,9,10,11,12,13,14,15,16,17-tetradecahydro-1H-cyclopenta[a]phenanthren-17-yl)-N-(1-hydroxypropan-2-yl)-N-methoxypentanamide], for which the EC50 in experiment [1] (setting [3]) fell in the range of 0.25 to 1 µM. In experiment [2], this compound showed a half-inhibitory concentration (IC50) of 0.25 to 1 µM.

In the case of `CC(=O)N1CCOC12CN(C(=O)CC[C@@H](C)[C@H]1CC[C@H]3[C@@H]4CC=C5C[C@@H](O)CC[C@]5(C)[C@H]4CC[C@]13C)C2` [Example 410, (4R)-4-[(1R,3aS,3bS,7S,9aR,9bS,11aR)-7-hydroxy-9a,11a-dimethyl-1H,2H,3H,3aH,3bH,4H,6H,7H,8H,9H,9aH,9bH,10H,11H,11aH-cyclopenta[a]phenanthren-1-yl]-1-{δ-acetyl-5-oxa-2,8-diazaspiro[3.4]octan-2-yl}pentan-1-one], in experiment [1] (setting [3]), the EC50 is above 10 µM. In experiment [2], this compound showed an IC50 of 1 to 10 µM.

As to `C[C@H](CCC(=O)N1CCN(C(=O)c2cnccn2)[C@@H](C)C1)[C@H]1CC[C@H]2[C@@H]3CC=C4C[C@@H](O)CC[C@]4(C)[C@H]3CC[C@]12C` [Example 568, (R)-4-((3S,8S,9S,10R,13R,14S,17R)-3-hydroxy-10,13-dimethyl-2,3,4,7,8,9,10,11,12,13,14,15,16,17-tetradecahydro-1H-cyclopenta[a]phenanthren-17-yl)-1-((S)-3-methyl-4-(pyrazine-2-carbonyl)piperazin-1-yl)pentan-1-one], the EC50 in experiment [1] (setting [3]) was above 10 µM. This compound also registered an IC50 in experiment [2] below 0.25 µM.

As for `C[C@H](CCC(=O)N1CC2(C1)CC(C)(CO)C2)[C@H]1CC[C@H]2[C@@H]3CC=C4C[C@@H](O)CC[C@]4(C)[C@H]3CC[C@]12C` [Example 372, (R)-4-((3S,8S,9S,10R,13R,14S,17R)-3-hydroxy-10,13-dimethyl-2,3,4,7,8,9,10,11,12,13,14,15,16,17-tetradecahydro-1H-cyclopenta[a]phenanthren-17-yl)-1-(6-(hydroxymethyl)-6-methyl-2-azaspiro[3.3]heptan-2-yl)pentan-1-one], in experiment [1] (setting [3]), the EC50 is above 10 µM. In addition, the IC50 in experiment [2] was below 0.25 µM.

For `C[C@H](CCC(=O)N1CCC(CNC(=O)C(C)(C)O)CC1)[C@H]1CC[C@H]2[C@@H]3CC=C4C[C@@H](O)CC[C@]4(C)[C@H]3CC[C@]12C` [Example 228, 2-hydroxy-N-((1-((R)-4-((3S,8S,9S,10R,13R,14S,17R)-3-hydroxy-10,13-dimethyl-2,3,4,7,8,9,10,11,12,13,14,15,16,17-tetradecahydro-1H-cyclopenta[a]phenanthren-17-yl)pentanoyl)piperidin-4-yl)methyl)-2-methylpropanamide], the EC50 in experiment [1] (setting [3]) is above 10 µM. The IC50 in experiment [2] was below 0.25 µM.

In the case of `Cc1ccc(CC[C@@H](C)[C@H]2CC[C@H]3[C@@H]4CC=C5C[C@@H](O)CC[C@]5(C)[C@H]4CC[C@]23C)nc1` [Example 131, (3S,8S,9S,10R,13R,14S,17R)-10,13-dimethyl-17-((R)-4-(5-methylpyridin-2-yl)butan-2-yl)-2,3,4,7,8,9,10,11,12,13,14,15,16,17-tetradecahydro-1H-cyclopenta[a]phenanthren-3-ol], the EC50 in experiment [1] (setting [3]) was above 10 µM. Further, the IC50 in experiment [2] was in the range of 0.25 to 1 µM.

Regarding `C[C@H](CCC(=O)N1CCN(c2cccnc2O)CC1)[C@H]1CC[C@H]2[C@@H]3CC=C4C[C@@H](O)CC[C@]4(C)[C@H]3CC[C@]12C` [Example 640, (R)-4-((3S,8S,9S,10R,13R,14S,17R)-3-hydroxy-10,13-dimethyl-2,3,4,7,8,9,10,11,12,13,14,15,16,17-tetradecahydro-1H-cyclopenta[a]phenanthren-17-yl)-1-(4-(2-hydroxypyridin-3-yl)piperazin-1-yl) pentan-1-one], the EC50 in experiment [1] (setting [3]) was above 10 µM. In addition, the IC50 in experiment [2] was below 0.25 µM.

Consider `Cc1nccc(N2CCN(C(=O)CC[C@@H](C)[C@H]3CC[C@H]4[C@@H]5CC=C6C[C@@H](O)CC[C@]6(C)[C@H]5CC[C@]34C)C[C@@H]2C)n1` [Example 647, (4R)-4-[(1R,3aS,3bS,7S,9aR,9bS,11aR)-7-hydroxy-9a,11a-dimethyl-1H,2H,3H,3aH,3bH,4H,6H,7H,8H,9H,9aH,9bH,10H,11H,11aH-cyclopenta[a]phenanthren-1-yl]-1-[(3S)-3-methyl-4-(2-methylpyrimidin-4-yl)piperazin-1-yl]pentan-1-one], for which the EC50 in experiment [1] (setting [3]) is above 10 µM. The same compound showed an IC50 in experiment [2] below 0.25 µM.
